Measured values reported in patent US11142527B2, “Dihydropyrimidine compounds and uses thereof in medicine” (SUNSHINE LAKE PHARMA CO., LTD., priority 2017, dated 2021).

The compounds below were run on HBV (assay: Test of anti HBV activity in vitro (viral DNA by qPCR)). Settings: Hepatitis B virus; HepG2.2.15 cells, viral DNA in cell culture supernatant by qPCR; read-out: EC50 values of the compound of the invention on viral replication.
Assay type: cell-based
Experimental: Test 1: Test Method of Calculating Anti HBV EC50
HBV Cell Line and Culture Conditions
HepG2.2.15 (SELLS, PNAS, 1987 and SELLS, JV, 1988) chromosomes have an integrated complete HBV genome, and stably express viral RNA and viral protein. HepG2.2.15 cells can secrete mature HBV particles, HBsAg and HBeAg, to medium. HepG2.2.15 cells were cultured in DMEM containing 10% fetal bovine serum, 100 U/mL penicillin, 100 U/mL streptomycin, 1% non essential amino acid, 1 mM sodium pyruvate and 300 μg/mL G418.
Viral particles DNA secreted from HepG2.2.15 cells can be quantified by qPCR, and the effect of the compound on viral replication can be detected.
Test of Anti HBV Activity In Vitro
8000 HepG 2.2.15 cells per well were seeded into a 96-well plate, the plate was cultured at 37° C. and 5% CO2 for 3 days till the cells grew to full wells. Old liquid medium can be removed and replaced with new medium (200 μL) on day 0.
Formulating the compound and treating the cells in the experiment of anti virus: the compound was dissolved in DMSO to a concentration of 30 mM, and then the compound solution was diluted with DMSO to a concentration of 800 μM, and then eight dilutions at 4 fold were performed, the highest concentration is 800 μM. The serial diluted compound was added to the above plate at 1 μL per well, the highest final concentration in the experiment is 4 μM (200 fold dilution). TDF (tenofovir dipiroxil fumarate, Selleck, Cat S1400) has a highest concentration of 4 μM as a positive control. 1 μL of DMSO was added in to the […] at a final concentration of 0.5%, TDF was added in to the […] at a final concentration of 1 μM.
Detection of Viral Genomic DNA by aPCR
Primer: HBV-For-202, […]; HBV-Rev-315, […]. Copies of virus can be calculated using a standard curve plotted by using plasmid containing HBV genome and using SYBR Premix Ex Taq II—Takara DRR081S kit and 1 μL cell culture supernatant as a template. EC50 values of the compound on viral replication were calculated by a four parametric nonlinear regression model using Graphpad Prism 5 software to manage concentration—viral copy number.

SMILES	EC50
COC(=O)C1=C(CN2CCN3C(=O)N(c4ccc(Oc5ccc(CCC(=O)O)cc5F)cc4F)C[C@@H]3C2)NC(c2nccs2)=N[C@H]1c1ccc(F)cc1Cl [Example 101, 3-(4-(4-((S)-7-(((R)-6-(2-chloro-4-fluorophenyl)-5-(methoxycarbonyl)-2-(thiazol-2-yl)-3,6-dihydropyrimidin-4-yl)methyl)-3-oxohexahydroimidazo[1,5-a]pyrazin-2(3H)-yl)-3-fluorophenoxy)-3-fluorophenyl)propanoic acid]	0.0148 µM
COC(=O)C1=C(CN2CCN3C(=O)N(CC#Cc4cccc(C(=O)O)c4)C[C@@H]3C2)NC(c2nccs2)=N[C@H]1c1ccc(F)cc1Cl [Example 2, 3-(3-((S)-7-(((R)-6-(2-chloro-4-fluorophenyl)-5-(methoxycarbonyl)-2-(thiazol-2-yl)-3,6-dihydropyrimidin-4-yl)methyl)-3-oxohexahydroimidazo[1,5-a]pyrazin-2(3H)-yl)prop-1-yn-1-yl)benzoic acid]	0.0104 µM
COC(=O)C1=C(CN2CCN3C(=O)N(c4ccc(-c5nc(C6CCCCC6)c[nH]5)cc4)C[C@@H]3C2)NC(c2nccs2)=N[C@H]1c1ccc(F)cc1Cl [Example 110, (R)-methyl 4-(2-chloro-4-fluorophenyl)-6-(((S)-2-(4-(5-cyclohexyl-1H-imidazol-2-yl)phenyl)-3-oxohexahydroimidazo[1,5-a]pyrazin-7(1H)-yl)methyl)-2-(thiazol-2-yl)-1,4-dihydropyrimidine-5-carboxylate]	0.0305 µM
COC(=O)C1=C(CN2CCN3C(=O)N(c4ccc(-c5ccc(C(C)(C)C(=O)O)cc5)cc4)C[C@@H]3C2)NC(c2nccs2)=N[C@H]1c1ccc(F)cc1Cl [Example 18, 2-(4′-((S)-7-(((R)-6-(2-chloro-4-fluorophenyl)-5-(methoxycarbonyl)-2-(thiazol-2-yl)-3,6-dihydropyrimidin-4-yl)methyl)-3-oxohexahydroimidazo[1,5-a]pyrazin-2(3H)-yl)-[1,1′-diphenyl]-4-yl)-2-methyl propionic acid]	0.013 µM
COC(=O)C1=C(CN2CCN3C(=O)N(c4ccc(-c5ccc(C(=O)O)cc5)cc4F)C[C@@H]3C2)NC(c2nccs2)=N[C@H]1c1ccc(F)cc1Cl [Example 113, 4′-((S)-7-(((R)-6-(2-chloro-4-fluorophenyl)-5-(methoxycarbonyl)-2-(thiazol-2-yl)-3,6-dihydropyrimidin-4-yl)methyl)-3-oxohexahydroimidazo[1,5-a]pyrazin-2(3H)-yl)-3′-fluoro-[1,1′-biphenyl]-4-carboxylic acid]	0.0239 µM
COC(=O)C1=C(CN2CCN3C(=O)N(c4ccc(C5(C(=O)O)CC5)cc4)C[C@@H]3C2)NC(c2nccs2)=N[C@H]1c1ccc(F)cc1Cl [Example 27, 1-(4-((S)-7-(((R)-6-(2-chloro-4-fluorophenyl)-5-(methoxycarbonyl)-2-(thiazol-2-yl)-3,6-dihydropyrimidin-4-yl)methyl)-3-oxohexahydroimidazo[1,5-a]pyrazin-2(3H)-yl)phenyl)cyclopropane carboxylic acid]	0.01 µM
COC(=O)C1=C(CN2CCN3C(=O)N(c4nc(-c5cccc(CCC(=O)O)c5)cs4)C[C@@H]3C2)NC(c2nccs2)=N[C@H]1c1ccc(F)cc1Cl [Example 140, 3-(3-(2-((S)-7-(((R)-6-(2-chloro-4-fluorophenyl)-5-(methoxycarbonyl)-2-(thiazol-2-yl)-3,6-dihydropyrimidin-4-yl)methyl)-3-oxohexahydroimidazo[1,5-a]pyrazin-2(3H)-yl)thiazol-4-yl)phenyl)propanoic acid]	0.0183 µM
COC(=O)C1=C(CN2CCN3C(=O)N(CC#Cc4ccc(C(=O)O)c(OC)c4)C[C@@H]3C2)NC(c2nccs2)=N[C@H]1c1ccc(F)cc1Cl [Example 52, 4-(3-((S)-7-(((R)-6-(2-chloro-4-fluorophenyl)-5-(methoxycarbonyl)-2-(thiazol-2-yl)-3,6-dihydropyrimidin-4-yl)methyl)-3-oxohexahydroimidazo[1,5-a]pyrazin-2(3H)-yl)prop-1-yn-1-yl)-2-methoxybenzoic acid]	0.0418 µM
COC(=O)C1=C(CN2CCN3C(=O)N(CC#Cc4ccc(C(=O)O)cc4F)C[C@@H]3C2)NC(c2nccs2)=N[C@H]1c1ccc(F)cc1Cl [Example 4, 4-(3-((S)-7-(((R)-6-(2-chloro-4-fluorophenyl)-5-(methoxycarbonyl)-2-(thiazol-2-yl)-3,6-dihydropyrimidin-4-yl)methyl)-3-oxohexahydroimidazo[1,5-a]pyrazin-2(3H)-yl)prop-1-yn-1-yl)-3-fluorobenzoic acid]	0.0198 µM
COC(=O)C1=C(CN2CCN3C(=O)N(c4cc(F)cc(Oc5ccc(C(=O)O)cc5F)c4)C[C@@H]3C2)NC(c2nccs2)=N[C@H]1c1ccc(F)cc1Cl [Example 13, 4-(3-((S)-7-(((R)-6-(2-chloro-4-fluorophenyl)-5-(methoxycarbonyl)-2-(thiazol-2-yl)-3,6-dihydropyrimidin-4-yl)methyl)-3-oxohexahydroimidazo[1,5-a]pyrazin-2(3H)-yl)-5-fluorophenoxy)-3-fluorobenzoic acid]	0.0221 µM
COC(=O)C1=C(CN2CCN3C(=O)N(c4ccc(-c5cnc(C)[nH]5)cc4)C[C@@H]3C2)NC(c2nccs2)=N[C@H]1c1ccc(F)cc1Cl [Example 107, (R)-methyl 4-(2-chloro-4-fluorophenyl)-6-(((S)-2-(4-(2-methyl-1H-imidazol-5-yl)phenyl)-3-oxohexahydroimidazo[1,5-a]pyrazin-7(1H)-yl)methyl)-2-(thiazol-2-yl)-1,4-dihydropyrimidine-5-carboxylate]	0.0065 µM
COC(=O)C1=C(CN2CCN3C(=O)N(CC#Cc4ccc(C(=O)O)cc4)C[C@@H]3C2)NC(c2nccs2)=N[C@H]1c1ccc(F)cc1Cl [Example 1, 4-(3-((S)-7-(((R)-6-(2-chloro-4-fluorophenyl)-5-(methoxycarbonyl)-2-(thiazol-2-yl)-3,6-dihydropyrimidin-4-yl)methyl)-3-oxohexahydroimidazo[1,5-a]pyrazin-2(3H)-yl)prop-1-yn-1-yl)benzoic acid]	0.00845 µM
COC(=O)C1=C(CN2CCN3C(=O)N(c4ccc(C5(C(=O)O)CCCC5)cc4)C[C@@H]3C2)NC(c2nccs2)=N[C@H]1c1ccc(F)cc1Cl [Example 29, 1-(4-((S)-7-(((R)-6-(2-chloro-4-fluorophenyl)-5-(methoxycarbonyl)-2-(thiazol-2-yl)-3,6-dihydroprimidin-4-yl)methyl)-3-oxohexahydroimidazo[1,5-a]pyrazin-2(3H)-yl)phenyl) cyclopentane carboxylic acid]	0.006 µM
COC(=O)C1=C(CN2CCN3C(=O)N(c4ccc(Oc5ccc(C(=O)O)cc5)nc4)C[C@@H]3C2)NC(c2nccs2)=N[C@H]1c1ccc(F)cc1Cl [Example 7, 4-((5-((S)-7-(((R)-6-(2-chloro-4-fluorophenyl)-5-(methoxycarbonyl)-2-(thiazol-2-yl)-3,6-dihydropyrimidin-4-yl)methyl)-3-oxohexahydroimidazo[1,5-a]pyrazin-2(3H)-yl)pyridin-2-yl)oxy)benzoic acid]	0.00878 µM
COC(=O)C1=C(CN2CCN3C(=O)N(CC#Cc4ccc(OC)cc4)C[C@@H]3C2)NC(c2nccs2)=N[C@H]1c1ccc(F)cc1Cl [Example 45, (R)-methyl 4-(2-chloro-4-fluorophenyl)-6-(((S)-2-(3-(4-methoxyphenyl)prop-2-yn-1-yl)-3-oxohexahydroimidazo[1,5-a]pyrazin-7(1H)-yl)methyl)-2-(thiazol-2-yl)-1,4-dihydropyrimidine-5-carboxylate]	0.0144 µM
COC(=O)C1=C(CN2CCN3C(=O)N(c4ccc5[nH]c(C6CCCN6C)nc5c4)C[C@@H]3C2)NC(c2nccs2)=N[C@H]1c1ccc(F)cc1Cl (stereo partly drawn) [Example 108, (4R)-methyl 4-(2-chloro-4-fluorophenyl)-6-(((8aS)-2-(2-(1-methylpyrrolidin-2-yl)-1H-benzo[d]imidazol-5-yl)-3-oxohexahydroimidazo[1,5-a]pyrazin-7(1H)-yl)methyl)-2-(thiazol-2-yl)-1,4-dihydropyrimidine-5-carboxylate]	0.0068 µM
COC(=O)C1=C(CN2CCN3C(=O)N(c4ccc(-c5ccc(C(=O)O)cc5)cc4)C[C@@H]3C2)NC(c2nccs2)=N[C@H]1c1ccc(F)cc1Cl [Example 12]	0.013 µM
COC(=O)C1=C(CN2CCN3C(=O)N(c4nc(-c5ccc(CC(=O)O)cc5)cs4)C[C@@H]3C2)NC(c2nccs2)=N[C@H]1c1ccc(F)cc1Cl [Example 134, 2-(4-(2-((S)-7-(((R)-6-(2-chloro-4-fluorophenyl)-5-(methoxycarbonyl)-2-(thiazol-2-yl)-3,6-dihydropyrimidin-4-yl)methyl)-3-oxohexahydroimidazo[1,5-a]pyrazin-2(3H)-yl)thiazol-4-yl)phenyl)acetic acid]	0.004 µM
COC(=O)C1=C(CN2CCN3C(=O)N(c4ccc(-c5ccc(C(=O)O)cc5F)cc4F)C[C@@H]3C2)NC(c2nccs2)=N[C@H]1c1ccc(F)cc1Cl [Example 120]	0.0255 µM
